Laboratory results published in patent US4136186A, “Thieno[3,2-c]pyridine derivatives” (Parcor, priority 1976, dated 1979).
Like-named read-outs stand apart in the source and are kept apart here.

Tests used:
[1] = Potentiation of hypnotics (infrahypnotic sodium pentobarbital); assay type: in vivo; conditions: mice, oral 50 mg/kg, thirty minutes prior to i.p. infrahypnotic sodium pentobarbital
Procedure: In addition, the compounds of the formula (I) potentiate very markedly the effect of hypnotics. Indeed, on oral administration to different groups of mice, at a dosage of 50 mg/kg, thirty minutes prior to intraperitoneal injection of an infrahypnotic dosage of sodium pentobarbital, they produce, with respect to the untreated reference animals, a marked potentiation of the barbiturate.

[2] = tested on: carrageenin-induced edema; test: Localised carrageenin-induced edema method; assay type: in vivo; conditions: Rattus norvegicus, rats, oral 100 mg/kg at -1, 0, 1 and 2.5 hours
Procedure: (a) Localised carrageenin-induced edema method: A 1% carrageenin solution (0.1 ml) is injected in the metatarsal flexor muscles of the right hind limb of rats at time 0. The animals of the treated group are additionally administered orally 100 mg/kg of the test derivative, respectively one hour prior to and then simultaneously with the phlogogenic agent, and then one hour and 2.5 hours thereafter. The percent antiinflammatory activity, as a function of time, is determined with respect to the control group by measurements effected with a ROCH micrometer at times 0, one hour, two hours, three hours and five hours after carrageenin administration.

[3] = tested on: collagen-induced blood-platelet aggregation; test: Collagen-induced blood-platelet aggregation (plasma of orally treated rats); assay type: in vivo, rats of Wistar strain; conditions: Rattus norvegicus, oral 100 mg/kg, 3 hours after treatment, collagen (bovine tendon extract), read-out: Percent inhibition of blood-platelet aggregation, Collagen
Procedure: (§1) A blood sample is taken from the jugular vein of rats of Wistar strain. From this citrated blood, and after centrifugation, is reconstituted a plasma containing 600,000 ± 20,000 platelets per mm^3 which will be used in all aggregation determinations. 0.4 ml plasma is placed in a siliconized tube provided with a magnetic bar, which is also siliconized. The tube is introduced into an aggregometer connected with an optical density variation recorder. When light transmission has reached a stable value, 0.5 ml of a solution containing 10 μM A.D.P. (adenosine-diphosphate) are introduced in the tube. Blood-platelet aggregation then induces an increase of light transmission followed by a decrease subsequent to the deaggregation phase. The thus determined maximum variation of optical density characterizes the intensity of the aggregation. (b) Determination of collagen-induced blood-platelet aggregation The A.D.P. solution is substituted with a collagen solution (bovine tendon extract). Different groups of 20 rats are used, each group being administered orally a test derivative, at a dosage of 100 mg/kg. The results obtained in the course of tests a) and b) are tabulated in following Table I which indicates the percent inhibition of blood-plateletaggregation obtained, with respect to the control, 3 hours after treatment.

[4] = tested on: A.D.P.-induced blood-platelet aggregation; test: A.D.P.-induced blood-platelet aggregation (plasma of orally treated rats); assay type: in vivo, rats of Wistar strain; conditions: Rattus norvegicus, oral 100 mg/kg, 3 hours after treatment, 10 μM A.D.P., read-out: Percent inhibition of blood-platelet aggregation, A.D.P.
Procedure: as §1, with “determinations. (a) Determination of A.D.P.-induced blood-platelet aggregation” for “determinations.”, “aggregation.” for “aggregation. (b) Determination of collagen-induced blood-platelet aggregation The A.D.P. solution is substituted with a collagen solution (bovine tendon extract).”

[5] = tested on: ovalbumin-induced systemic edema; test: Ovalbumin-induced systemic edema method; assay type: in vivo; conditions: Rattus norvegicus, rats, oral 100 mg/kg one hour prior to and simultaneously with ovalbumin
Procedure: (b) Ovalbumin-induced systemic edema method Rats are administered a simultaneous intraperitoneal injection of 1 ml ovalbumin and 0.5 ml of a 1% aqueous Evans Blue solution. The animals of the treated group are additionally administered orally 100 mg/kg of the test derivative, one hour prior to and simultaneously with said ovalbumin administration. The intensity of the phenomenon thus induced is scored according to a scale from 1 to 5, according to the progress of the inflammatory syndrome. Thus are determined with respect to the control group the mean intensity and the percent decrease of the edema reaction, as a function of time. The percent anti-inflammatory activity obtained 2 hours and 3 hours, respectively, after ovalbumin injection, is tabulated in following Table III: […]

[6] = 1 hour after carrageenin, read-out: Percent anti-inflammatory activity after 1 hour
[7] = 2 hours after carrageenin, read-out: Percent anti-inflammatory activity after 2 hours
[8] = 3 hours after carrageenin, read-out: Percent anti-inflammatory activity after 3 hours
[9] = 5 hours after carrageenin, read-out: Percent anti-inflammatory activity after 5 hours
[10] = 2 hours after ovalbumin injection, read-out: Percent anti-inflammatory activity after 2 hours
[11] = 3 hours after ovalbumin injection, read-out: Percent anti-inflammatory activity after 3 hours

Compound	percent animals put to sleep [1]	inhibition in vivo at 100 mg/kg [2, 6]	inhibition in vivo at 100 mg/kg [2, 7]	inhibition in vivo at 100 mg/kg [2, 8]	inhibition in vivo at 100 mg/kg [2, 9]	inhibition in vivo at 100 mg/kg [3]	inhibition in vivo at 100 mg/kg [4]	inhibition in vivo at 100 mg/kg [5, 10]	inhibition in vivo at 100 mg/kg [5, 11]
CCOC(=O)c1sc2c(c1O)CN(C)CC2 [Derivative n°6, 2-Ethoxycarbonyl-3-hydroxy-5-methyl-4,5,6,7-tetrahydro-thieno[3,2-c]pyridine]	90%	34%	40%	43%	48%	93.2%	63.8%	52%	59%
CCOC(=O)c1sc2c(c1OC(C)=O)CN(Cc1ccccc1Cl)CC2 [Derivative n°3, 3-acetoxy-5-o-chlorobenzyl-2-ethoxycarbonyl-4,5,6,7-tetrahydro-thieno[3,2-c]pyridine]	80%	38%	45%	49%	51%	92.9%	62.4%	51%	59%
CCCCOC(=O)c1sc2c(c1O)CN(Cc1ccccc1Cl)CC2 [Derivative n°10, 2-Butoxycarbonyl-5-o-chlorobenzyl-3-hydroxy-4,5,6,7-tetrahydro-thieno[3,2-c]pyridine]	90%	37%	42%	48%	51%	90.2%	63.6%	50%	59%
CCOC(=O)c1sc2c(c1O)CN(Cc1ccccc1)CC2.Cl [Derivative n°4, 5-Benzyl-2-ethoxycarbonyl-3-hydroxy-4,5,6,7-tetrahydro-thieno[3,2-c]pyridine hydrochloride]	70%	39%	45%	50%	53%	95.2%	64.8%	48%	56%
CCOC(=O)c1sc2c(c1O)CN(C(=O)c1ccccc1)CC2 [Derivative n°2, 5-benzoyl-2-ethoxycarbonyl-3-hydroxy-4,5,6,7-tetrahydro-thieno[3,2-c]pyridine]	60%	42%	48%	50%	53%	94.6%	62.8%	49%	58%
CCOC(=O)c1sc2c(c1O)CNCC2 [Derivative n°7, 2-Ethoxycarbonyl-3-hydroxy-4,5,6,7-tetrahydro-thieno[3,2-c]pyridine]	90%	36%	41%	45%	52%	95.6%	62.5%	50%	60%
CCOC(=O)c1sc2c(c1O)CN(C(=O)OCC)CC2 [Derivative n°11, 2,5-Diethoxycarbonyl-3-hydroxy-4,5,6,7-tetrahydro-thieno[3,2-c]pyridine]	60%	40%	46%	49%	53%	91%	62.1%	51%	61%
CCOC(=O)c1sc2c(c1O)CN(CCc1ccccc1)CC2 [Derivative n°9, 2-Ethoxycarbonyl-3-hydroxy-5-phenethyl-4,5,6,7-tetrahydro-thieno[3,2-c]pyridine]	100%	42%	46%	50%	54%	93.8%	64.5%	53%	62%
COC(=O)c1sc2c(c1O)CNCC2 [Derivative n°8, 3-Hydroxy-2-methoxycarbonyl-4,5,6,7-tetrahydro-thieno[3,2-c]pyridine]	80%	43%	49%	53%	55%	94.3%	62.1%	48%	57%
COC(=O)c1sc2c(c1O)CN(Cc1ccccc1Cl)CC2 [Derivative n°5, 5-o-Chlorobenzyl-3-hydroxy-2-methoxycarbonyl-4,5,6,7-tetrahydro-thieno[3,2-c]pyridine]	70%	41%	47%	51%	55%	96.7%	64.4%	47%	55%
CCOC(=O)c1sc2c(c1O)CN(Cc1ccccc1Cl)CC2 [Derivative n°1, 5-o-Chlorobenzyl-2-ethoxycarbonyl-3-hydroxy-4,5,6,7-tetrahydro-thieno[3,2-c]pyridine]	60%	46%	53%	56%	60%	90.2%	61.2%	54%	63%
